From patent US12466839B2, “Allosteric AKT inhibitors for use in the treatment of Hereditary Hemorrhagic Telangiectasia” (VADERIS THERAPEUTICS AG, priority 2020, dated 2025)

How the values were obtained:
VPAC1 = target: T1, VPAC1 (Homo sapiens, UniProt P32241); assay: Millipore Drug Discovery Safety and Liability Panel; assay type: cell-based
T1 construct: Millipore

M1 = target: T2, M1 (Homo sapiens, UniProt P11229); assay: as above; assay type: cell-based
T2 construct: purchased Millipore

ADRA1D (DELTA2-79) = target: T3, ADRA1D (DELTA2-79) (Homo sapiens, UniProt P25100); assay: as above; assay type: cell-based
T3 construct: purchased Millipore

M2 = target: T4, M2 (Homo sapiens, UniProt P08172); assay: as above; assay type: cell-based
T4 construct: purchased Millipore

OPRM1 = target: T5, OPRM1 (Homo sapiens, UniProt P35372); assay: as above; assay type: cell-based
T5 construct: Millipore

5-HT2C = target: T6, 5-HT2C (Homo sapiens, UniProt P28335); assay: as above; assay type: cell-based
T6 construct: purchased Millipore

tumor xenograft = assay: Tumor xenograft model; assay type: in vivo
KChIP2 (Homo sapiens) = assay: Cardiac ion channel profile; assay type: cell-based
Kv1.5 = Kv1.5 (Homo sapiens, UniProt P22460); assay: Cardiac ion channel profile; assay type: cell-based
ADRB1 = target: T7, ADRB1 (Homo sapiens, UniProt P08588); assay: Millipore Drug Discovery Safety and Liability Panel; assay type: cell-based
T7 construct: purchased Millipore

H3 = target: T8, H3 (Homo sapiens, UniProt Q9Y5N1); assay: as above; assay type: cell-based
T8 construct: purchased Millipore

TP = target: T9, TP (Homo sapiens, UniProt P21731); assay: as above; assay type: cell-based
T9 construct: Millipore

Kir2.1 = Kir2.1 (Homo sapiens, UniProt P63252); assay: Cardiac ion channel profile; assay type: cell-based
BDKR2 = target: T10, BDKR2 (Homo sapiens, UniProt P30411); assay: Millipore Drug Discovery Safety and Liability Panel; assay type: cell-based
T10 construct: purchased Millipore

CB2 = target: T11, CB2 (Homo sapiens, UniProt P34972); assay: as above; assay type: cell-based
T11 construct: purchased Millipore

ETA = target: T12, ETA (Homo sapiens, UniProt P25101); assay: as above; assay type: cell-based
T12 construct: purchased Millipore

PTH1 = target: T13, PTH1 (Homo sapiens, UniProt Q03431); assay: as above; assay type: cell-based
T13 construct: Millipore

AKT3 = AKT3 (Homo sapiens, UniProt Q9Y243); assay: Panel of 450 kinases; assay type: biochemical
ADRB2 = target: T14, ADRB2 (Homo sapiens, UniProt P07550); assay: Millipore Drug Discovery Safety and Liability Panel; assay type: cell-based
T14 construct: purchased Millipore

full length AKT1 = full length AKT1 (Homo sapiens, UniProt P31749); assay: Biochemical kinase assay
AKT = AKT inhibition in primary lung endothelial cells with complete loss of Eng expression (western blot); assay type: cell-based; conditions: Endothelial cell; lung mouse endothelial cells with complete loss of Eng expression; VEGF-A stimulation
D2 = target: T15, D2 (Homo sapiens, UniProt P14416); assay: Millipore Drug Discovery Safety and Liability Panel; assay type: cell-based
T15 construct: purchased Millipore

MCF7 tumor cells = assay: IC50 in MCF7 tumor cells in vitro; assay type: cell-based; conditions: Homo sapiens
V1A = target: T16, V1A (Homo sapiens, UniProt P37288); assay: Millipore Drug Discovery Safety and Liability Panel; assay type: cell-based
T16 construct: Millipore

IP1 = target: T17, IP1 (Homo sapiens, UniProt P43119); assay: as above; assay type: cell-based
T17 construct: purchased Millipore

FPR1 = target: T18, FPR1 (Homo sapiens, UniProt P21462); assay: as above; assay type: cell-based
T18 construct: purchased Millipore

Cav1.2 = Cav1.2 (Homo sapiens, UniProt Q13936); assay: Cardiac ion channel profile; assay type: cell-based
5-HT2A = target: T19, 5-HT2A (Homo sapiens, UniProt P28223); assay: Millipore Drug Discovery Safety and Liability Panel; assay type: cell-based
T19 construct: purchased Millipore

ADRA1A = target: T20, ADRA1A (Homo sapiens, UniProt P35348); assay: as above; assay type: cell-based
T20 construct: purchased Millipore

GAL1 = target: T21, GAL1 (Homo sapiens, UniProt P47211); assay: as above; assay type: cell-based
T21 construct: purchased Millipore

[1] = read-out: ANTAGONIST mean % inhibition
[2] = read-out: AGONIST mean % increase in activity

T15 sequence (P14416 whole entry): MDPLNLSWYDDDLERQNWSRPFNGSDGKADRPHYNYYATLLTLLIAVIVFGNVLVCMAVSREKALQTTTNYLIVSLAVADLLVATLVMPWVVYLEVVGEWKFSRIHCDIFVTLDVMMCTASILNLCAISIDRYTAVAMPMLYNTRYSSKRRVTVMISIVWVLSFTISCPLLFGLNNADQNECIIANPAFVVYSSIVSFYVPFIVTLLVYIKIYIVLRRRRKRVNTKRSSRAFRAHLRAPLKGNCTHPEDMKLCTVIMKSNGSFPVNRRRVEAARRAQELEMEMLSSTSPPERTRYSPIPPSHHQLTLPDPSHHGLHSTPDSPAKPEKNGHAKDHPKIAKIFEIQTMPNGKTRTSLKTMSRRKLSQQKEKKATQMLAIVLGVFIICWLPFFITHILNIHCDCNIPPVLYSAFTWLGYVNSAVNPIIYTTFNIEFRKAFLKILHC
T20 sequence (P35348 whole entry): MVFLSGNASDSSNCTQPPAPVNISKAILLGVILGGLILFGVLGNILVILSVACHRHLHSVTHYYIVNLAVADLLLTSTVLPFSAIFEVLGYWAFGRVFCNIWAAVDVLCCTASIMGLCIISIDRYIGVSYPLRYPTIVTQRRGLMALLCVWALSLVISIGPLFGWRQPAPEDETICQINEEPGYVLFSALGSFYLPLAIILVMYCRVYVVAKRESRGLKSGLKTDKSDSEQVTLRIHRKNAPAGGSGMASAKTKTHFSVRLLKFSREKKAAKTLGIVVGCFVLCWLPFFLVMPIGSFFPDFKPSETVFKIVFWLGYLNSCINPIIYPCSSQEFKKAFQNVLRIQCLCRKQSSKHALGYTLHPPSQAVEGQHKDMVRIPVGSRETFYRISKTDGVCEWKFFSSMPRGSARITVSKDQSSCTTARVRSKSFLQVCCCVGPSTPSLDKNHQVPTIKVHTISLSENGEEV
T3 sequence (P25100 with tags, fused parts or gaps limits assumed): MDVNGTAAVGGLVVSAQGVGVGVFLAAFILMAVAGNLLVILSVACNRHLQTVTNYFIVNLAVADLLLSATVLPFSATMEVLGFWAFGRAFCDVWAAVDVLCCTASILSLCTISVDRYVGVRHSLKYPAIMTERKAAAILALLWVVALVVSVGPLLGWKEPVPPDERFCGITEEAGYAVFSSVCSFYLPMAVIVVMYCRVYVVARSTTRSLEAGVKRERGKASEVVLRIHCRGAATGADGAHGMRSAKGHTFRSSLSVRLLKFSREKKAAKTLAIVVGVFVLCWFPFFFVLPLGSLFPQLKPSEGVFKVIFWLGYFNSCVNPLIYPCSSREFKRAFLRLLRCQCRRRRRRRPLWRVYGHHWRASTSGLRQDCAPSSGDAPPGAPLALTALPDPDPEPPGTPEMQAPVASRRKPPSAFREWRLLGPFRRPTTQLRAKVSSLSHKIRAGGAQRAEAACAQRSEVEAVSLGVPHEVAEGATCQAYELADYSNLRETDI
T17 sequence (P43119 whole entry): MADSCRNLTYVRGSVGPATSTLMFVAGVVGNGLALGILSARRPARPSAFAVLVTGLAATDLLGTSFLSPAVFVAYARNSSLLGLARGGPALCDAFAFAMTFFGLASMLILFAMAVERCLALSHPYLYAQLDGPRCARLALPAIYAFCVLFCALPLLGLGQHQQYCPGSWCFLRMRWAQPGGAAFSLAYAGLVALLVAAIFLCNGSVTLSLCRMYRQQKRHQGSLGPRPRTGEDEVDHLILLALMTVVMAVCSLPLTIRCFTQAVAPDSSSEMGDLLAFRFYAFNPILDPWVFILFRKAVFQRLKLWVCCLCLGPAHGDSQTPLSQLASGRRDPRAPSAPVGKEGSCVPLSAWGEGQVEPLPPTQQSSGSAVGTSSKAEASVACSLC
T11 sequence (P34972 whole entry): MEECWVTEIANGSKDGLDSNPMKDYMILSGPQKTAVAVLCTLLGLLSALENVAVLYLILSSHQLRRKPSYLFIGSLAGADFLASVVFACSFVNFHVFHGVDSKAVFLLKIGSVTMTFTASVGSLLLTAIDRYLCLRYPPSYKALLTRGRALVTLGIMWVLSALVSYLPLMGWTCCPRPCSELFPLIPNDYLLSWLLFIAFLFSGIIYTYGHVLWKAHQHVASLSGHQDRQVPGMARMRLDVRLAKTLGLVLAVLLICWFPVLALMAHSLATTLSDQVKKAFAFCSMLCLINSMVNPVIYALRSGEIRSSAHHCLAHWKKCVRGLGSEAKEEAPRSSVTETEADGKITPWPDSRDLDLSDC
T1 sequence (P32241 31-457): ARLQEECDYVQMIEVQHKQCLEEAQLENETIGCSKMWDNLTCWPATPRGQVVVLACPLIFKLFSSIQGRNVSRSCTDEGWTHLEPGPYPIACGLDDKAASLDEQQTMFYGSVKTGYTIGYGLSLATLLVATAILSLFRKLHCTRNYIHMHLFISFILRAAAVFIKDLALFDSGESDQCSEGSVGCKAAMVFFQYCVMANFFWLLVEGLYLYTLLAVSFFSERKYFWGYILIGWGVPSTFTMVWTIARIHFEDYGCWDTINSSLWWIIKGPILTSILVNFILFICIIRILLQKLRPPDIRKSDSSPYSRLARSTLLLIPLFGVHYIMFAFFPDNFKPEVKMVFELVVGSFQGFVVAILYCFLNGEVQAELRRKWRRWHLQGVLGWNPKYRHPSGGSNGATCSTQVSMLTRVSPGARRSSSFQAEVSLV
T19 sequence (P28223 whole entry): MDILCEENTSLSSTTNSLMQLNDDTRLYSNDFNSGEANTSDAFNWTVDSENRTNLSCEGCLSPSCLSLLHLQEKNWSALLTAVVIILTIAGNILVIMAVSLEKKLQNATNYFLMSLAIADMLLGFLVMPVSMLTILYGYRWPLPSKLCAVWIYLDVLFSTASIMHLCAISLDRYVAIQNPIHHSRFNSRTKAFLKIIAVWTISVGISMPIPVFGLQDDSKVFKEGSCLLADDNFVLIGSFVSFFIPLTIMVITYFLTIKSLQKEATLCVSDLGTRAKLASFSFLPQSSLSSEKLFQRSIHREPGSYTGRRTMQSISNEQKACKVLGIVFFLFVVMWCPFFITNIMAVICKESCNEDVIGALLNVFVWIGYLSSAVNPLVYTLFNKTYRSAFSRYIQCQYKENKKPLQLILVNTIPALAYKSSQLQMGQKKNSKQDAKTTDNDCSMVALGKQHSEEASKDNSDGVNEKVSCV
T4 sequence (P08172 whole entry): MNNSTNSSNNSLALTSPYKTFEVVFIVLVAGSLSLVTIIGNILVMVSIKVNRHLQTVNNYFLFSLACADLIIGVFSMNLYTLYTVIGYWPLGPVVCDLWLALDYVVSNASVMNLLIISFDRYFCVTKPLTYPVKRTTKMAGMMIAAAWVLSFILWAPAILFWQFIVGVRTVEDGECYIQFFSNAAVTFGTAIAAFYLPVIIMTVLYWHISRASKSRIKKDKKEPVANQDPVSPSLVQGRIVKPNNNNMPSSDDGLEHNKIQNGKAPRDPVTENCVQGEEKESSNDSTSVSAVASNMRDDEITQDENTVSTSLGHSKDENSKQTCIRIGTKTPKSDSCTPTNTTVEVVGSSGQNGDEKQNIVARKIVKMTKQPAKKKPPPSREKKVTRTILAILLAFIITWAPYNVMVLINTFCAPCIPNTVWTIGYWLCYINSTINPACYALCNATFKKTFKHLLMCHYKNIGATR
T5 sequence (P35372 whole entry, species assumed): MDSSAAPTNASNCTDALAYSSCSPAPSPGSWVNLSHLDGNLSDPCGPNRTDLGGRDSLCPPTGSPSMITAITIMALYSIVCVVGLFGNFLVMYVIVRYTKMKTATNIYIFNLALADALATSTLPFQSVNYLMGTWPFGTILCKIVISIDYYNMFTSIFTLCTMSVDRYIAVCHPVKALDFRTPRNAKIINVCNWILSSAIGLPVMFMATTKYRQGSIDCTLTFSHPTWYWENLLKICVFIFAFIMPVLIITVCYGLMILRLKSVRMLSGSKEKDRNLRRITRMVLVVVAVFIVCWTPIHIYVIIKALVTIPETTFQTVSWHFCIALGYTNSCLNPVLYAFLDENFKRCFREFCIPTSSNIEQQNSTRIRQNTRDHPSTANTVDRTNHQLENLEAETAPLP
T21 sequence (P47211 whole entry): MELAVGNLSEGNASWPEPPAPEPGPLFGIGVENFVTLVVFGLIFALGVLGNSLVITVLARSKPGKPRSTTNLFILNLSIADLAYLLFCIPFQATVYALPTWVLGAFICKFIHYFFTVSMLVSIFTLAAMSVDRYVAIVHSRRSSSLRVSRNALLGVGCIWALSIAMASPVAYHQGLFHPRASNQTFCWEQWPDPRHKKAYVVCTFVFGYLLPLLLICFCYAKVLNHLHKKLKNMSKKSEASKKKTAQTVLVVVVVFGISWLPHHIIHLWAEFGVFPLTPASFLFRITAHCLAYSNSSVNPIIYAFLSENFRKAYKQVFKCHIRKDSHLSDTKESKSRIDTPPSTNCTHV
T14 sequence (P07550 whole entry): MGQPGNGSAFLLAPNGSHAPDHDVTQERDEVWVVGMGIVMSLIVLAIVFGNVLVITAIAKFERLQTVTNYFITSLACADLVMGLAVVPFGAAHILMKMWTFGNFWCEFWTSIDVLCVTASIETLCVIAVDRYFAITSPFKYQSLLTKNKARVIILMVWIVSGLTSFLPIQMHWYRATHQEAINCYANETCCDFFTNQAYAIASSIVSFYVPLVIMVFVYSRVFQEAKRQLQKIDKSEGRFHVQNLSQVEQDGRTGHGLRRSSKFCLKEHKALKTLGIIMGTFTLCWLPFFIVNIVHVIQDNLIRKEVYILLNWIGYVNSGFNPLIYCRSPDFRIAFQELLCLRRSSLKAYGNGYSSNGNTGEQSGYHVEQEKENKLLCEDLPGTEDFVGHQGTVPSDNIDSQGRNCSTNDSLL

CCN1C(=O)COc2nc(-c3ccc(C4(N)CC(O)C4)cc3)c(-c3ccccc3)cc21.O=C(O)C(O)C(O)C(=O)O [VAD044, 6-(4-(1-amino-3-hydroxycyclobutyl)phenyl)-1-ethyl-7-phenyl-1H-pyrido[2,3-b][1,4]oxazin-2(3H)-one L-tartrate]
activation at 10 µM (VPAC1; VPAC1, 10 μM, read-out: AGONIST mean % increase in activity): -0.7%
inhibition at 10 µM (VPAC1; [1]): 8.5%
activation at 10 µM (M1; M1, 10 μM, read-out: AGONIST mean % increase in activity): -0.7%
inhibition at 10 µM (M1; [1]): -3.4%
activation at 10 µM (ADRA1D (DELTA2-79); ADRA1D (DELTA2-79), 10 μM, read-out: AGONIST mean % increase in activity): -0.1%
inhibition at 10 µM (ADRA1D (DELTA2-79); [1]): 7%
activation at 10 µM (M2; [2]): 0%
inhibition at 10 µM (M2; [1]): 20.6%
inhibition at 10 µM (OPRM1; OPRM1, read-out: ANTAGONIST mean % inhibition): 2.4%
activation at 10 µM (OPRM1; OPRM1, 10 μM, read-out: AGONIST mean % increase in activity): -2%
activation at 10 µM (5-HT2C; [2]): 0.8%
inhibition at 10 µM (5-HT2C; [1]): 21.9%
minimal effective dose in vivo (tumor xenograft): 30 mg/kg
inhibition at 10 µM (KChIP2 (Homo sapiens)): < 25%
inhibition at 10 µM (Kv1.5): < 25%
activation at 10 µM (ADRB1; ADRB1, 10 μM, read-out: AGONIST mean % increase in activity): -0.1%
inhibition at 10 µM (ADRB1; [1]): 4.2%
activation at 10 µM (H3; H3, 10 μM, read-out: AGONIST mean % increase in activity): -0.6%
inhibition at 10 µM (H3; [1]): 3.5%
activation at 10 µM (TP; TP, 10 μM, read-out: AGONIST mean % increase in activity): -0.5%
inhibition at 10 µM (TP; [1]): 0%
inhibition at 10 µM (Kir2.1): < 25%
activation at 10 µM (BDKR2; BDKR2, 10 μM, read-out: AGONIST mean % increase in activity): -0.4%
inhibition at 10 µM (BDKR2; [1]): 14.6%
activation at 10 µM (CB2; CB2, 10 μM, read-out: AGONIST mean % increase in activity): -0.9%
inhibition at 10 µM (CB2; [1]): 10.6%
activation at 10 µM (ETA; ETA, 10 μM, read-out: AGONIST mean % increase in activity): -0.4%
inhibition at 10 µM (ETA; [1]): 10.5%
activation at 10 µM (PTH1; PTH1, 10 μM, read-out: AGONIST mean % increase in activity): -1.1%
inhibition at 10 µM (PTH1; [1]): -2.5%
inhibition at 10 µM (AKT3): 72%
activation at 10 µM (ADRB2; ADRB2, 10 μM, read-out: AGONIST mean % increase in activity): 0.8%
inhibition at 10 µM (ADRB2; [1]): 6.1%
IC50 (full length AKT1): 125 nM
IC50 (AKT): 93 nM
activation at 10 µM (D2; D2, 10 μM, read-out: AGONIST mean % increase in activity): -1.1%
inhibition at 10 µM (D2; [1]): -0.2%
IC50 (MCF7 tumor cells): ~50 nM
activation at 10 µM (V1A; V1A, 10 μM, read-out: AGONIST mean % increase in activity): -1.5%
inhibition at 10 µM (V1A; [1]): 2.5%
activation at 10 µM (IP1; IP1, 10 μM, read-out: AGONIST mean % increase in activity): 1.1%
inhibition at 10 µM (IP1; [1]): -2.6%
activation at 10 µM (FPR1; FPR1, 10 μM, read-out: AGONIST mean % increase in activity): -0.1%
inhibition at 10 µM (FPR1; [1]): 13.3%
inhibition at 10 µM (Cav1.2): < 25%
activation at 10 µM (5-HT2A; [2]): 1.3%
inhibition at 10 µM (5-HT2A; [1]): -0.7%
activation at 10 µM (ADRA1A; ADRA1A, 10 μM, read-out: AGONIST mean % increase in activity): -0.7%
inhibition at 10 µM (ADRA1A; [1]): 9.9%
activation at 10 µM (GAL1; GAL1, 10 μM, read-out: AGONIST mean % increase in activity): 0.3%
inhibition at 10 µM (GAL1; [1]): 3.4%
